Results as given in paper PMC10004634 (PLOS ONE, 2023).
Like-named read-outs stand apart in the source and are kept apart here.

Tests used:
Experiment in all cases: biochemical
Design in all cases: KINOMEscan scanMAX competition binding, DNA-tagged kinases, qPCR read-out, percent control at 300 nM
AURKC = target: T1, AURKC (Homo sapiens, UniProt Q9UQB9)
T1 sequence (Q9UQB9 1-309): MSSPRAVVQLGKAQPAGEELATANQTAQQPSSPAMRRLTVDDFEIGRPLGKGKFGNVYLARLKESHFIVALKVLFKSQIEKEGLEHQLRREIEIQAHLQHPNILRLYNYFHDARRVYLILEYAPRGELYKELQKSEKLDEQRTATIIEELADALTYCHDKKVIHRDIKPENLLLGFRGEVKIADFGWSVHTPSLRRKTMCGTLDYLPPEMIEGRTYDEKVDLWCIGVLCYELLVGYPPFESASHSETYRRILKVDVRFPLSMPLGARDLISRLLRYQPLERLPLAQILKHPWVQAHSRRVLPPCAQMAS

p38-delta = target: T2, p38-delta (Homo sapiens, UniProt O15264)
T2 construct: gene MAPK13
T2 sequence (O15264 1-365): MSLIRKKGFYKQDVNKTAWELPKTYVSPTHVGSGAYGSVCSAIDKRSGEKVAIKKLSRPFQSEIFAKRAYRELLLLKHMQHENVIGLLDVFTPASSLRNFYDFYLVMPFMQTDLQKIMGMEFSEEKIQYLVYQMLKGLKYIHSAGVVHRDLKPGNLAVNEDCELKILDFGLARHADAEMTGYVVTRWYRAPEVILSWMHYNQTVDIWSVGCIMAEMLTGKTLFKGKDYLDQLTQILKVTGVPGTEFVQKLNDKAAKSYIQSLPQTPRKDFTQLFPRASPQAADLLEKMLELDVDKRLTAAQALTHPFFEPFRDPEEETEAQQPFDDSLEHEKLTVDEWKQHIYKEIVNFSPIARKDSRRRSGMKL

GAK = target: T3, GAK (Homo sapiens, UniProt O14976)
T3 sequence (O14976 1-1311): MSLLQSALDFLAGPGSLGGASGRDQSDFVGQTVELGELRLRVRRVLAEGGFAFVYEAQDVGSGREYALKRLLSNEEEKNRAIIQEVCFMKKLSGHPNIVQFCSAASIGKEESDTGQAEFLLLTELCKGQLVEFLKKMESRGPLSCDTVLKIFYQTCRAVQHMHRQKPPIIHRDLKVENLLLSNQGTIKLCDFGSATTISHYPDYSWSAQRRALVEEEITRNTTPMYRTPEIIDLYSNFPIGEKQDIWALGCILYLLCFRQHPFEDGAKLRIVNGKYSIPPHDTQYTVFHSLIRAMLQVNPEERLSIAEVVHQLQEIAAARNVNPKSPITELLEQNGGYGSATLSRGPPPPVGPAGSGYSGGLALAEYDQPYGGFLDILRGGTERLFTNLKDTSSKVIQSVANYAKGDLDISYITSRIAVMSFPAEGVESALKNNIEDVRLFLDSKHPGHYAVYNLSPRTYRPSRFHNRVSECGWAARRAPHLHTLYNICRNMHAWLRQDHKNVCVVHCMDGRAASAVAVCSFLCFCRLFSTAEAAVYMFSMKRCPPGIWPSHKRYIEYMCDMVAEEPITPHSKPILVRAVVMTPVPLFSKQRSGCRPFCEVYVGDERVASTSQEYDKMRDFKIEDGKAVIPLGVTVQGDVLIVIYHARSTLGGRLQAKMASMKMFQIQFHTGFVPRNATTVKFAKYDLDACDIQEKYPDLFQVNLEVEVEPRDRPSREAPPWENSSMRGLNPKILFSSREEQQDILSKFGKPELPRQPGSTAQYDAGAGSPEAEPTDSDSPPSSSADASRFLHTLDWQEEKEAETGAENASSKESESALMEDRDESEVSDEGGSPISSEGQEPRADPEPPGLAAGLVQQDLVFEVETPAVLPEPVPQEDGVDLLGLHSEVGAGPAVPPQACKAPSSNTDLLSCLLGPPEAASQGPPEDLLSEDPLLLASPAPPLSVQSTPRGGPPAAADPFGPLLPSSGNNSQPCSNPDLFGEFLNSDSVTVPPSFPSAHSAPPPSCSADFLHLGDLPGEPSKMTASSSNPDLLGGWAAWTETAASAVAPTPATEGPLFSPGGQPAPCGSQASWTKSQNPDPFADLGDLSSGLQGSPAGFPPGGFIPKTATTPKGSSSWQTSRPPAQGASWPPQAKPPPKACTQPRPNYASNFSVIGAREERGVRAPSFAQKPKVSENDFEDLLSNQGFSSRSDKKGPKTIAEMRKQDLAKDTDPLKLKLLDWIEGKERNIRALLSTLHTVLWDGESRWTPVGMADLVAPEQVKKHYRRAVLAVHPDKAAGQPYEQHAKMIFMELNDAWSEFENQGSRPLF

BRK = target: T4, BRK (Homo sapiens, UniProt Q13882)
T4 construct: gene PTK6

BRAF(V600E) = BRAF(V600E) (Homo sapiens, UniProt P15056, V600E)
PHKG1 = PHKG1 (Homo sapiens, UniProt Q16816)
PIK3CA(E545K) = PIK3CA(E545K) (Homo sapiens, UniProt P42336, E545K)
[1] = target: EGFR(L747-S752del, P753S) (Homo sapiens, UniProt P00533, DEL747-752/P753S)
PDGFRA = PDGFRA (Homo sapiens, UniProt P16234)
[2] = read-out: Percent control / Acalabrutinib
[3] = read-out: Percent control / Ibrutinib
[4] = read-out: Percent control / Tirabrutinib
[5] = read-out: Percent control / Zanubrutinib

Sequence of PDGFRA (P16234 whole entry): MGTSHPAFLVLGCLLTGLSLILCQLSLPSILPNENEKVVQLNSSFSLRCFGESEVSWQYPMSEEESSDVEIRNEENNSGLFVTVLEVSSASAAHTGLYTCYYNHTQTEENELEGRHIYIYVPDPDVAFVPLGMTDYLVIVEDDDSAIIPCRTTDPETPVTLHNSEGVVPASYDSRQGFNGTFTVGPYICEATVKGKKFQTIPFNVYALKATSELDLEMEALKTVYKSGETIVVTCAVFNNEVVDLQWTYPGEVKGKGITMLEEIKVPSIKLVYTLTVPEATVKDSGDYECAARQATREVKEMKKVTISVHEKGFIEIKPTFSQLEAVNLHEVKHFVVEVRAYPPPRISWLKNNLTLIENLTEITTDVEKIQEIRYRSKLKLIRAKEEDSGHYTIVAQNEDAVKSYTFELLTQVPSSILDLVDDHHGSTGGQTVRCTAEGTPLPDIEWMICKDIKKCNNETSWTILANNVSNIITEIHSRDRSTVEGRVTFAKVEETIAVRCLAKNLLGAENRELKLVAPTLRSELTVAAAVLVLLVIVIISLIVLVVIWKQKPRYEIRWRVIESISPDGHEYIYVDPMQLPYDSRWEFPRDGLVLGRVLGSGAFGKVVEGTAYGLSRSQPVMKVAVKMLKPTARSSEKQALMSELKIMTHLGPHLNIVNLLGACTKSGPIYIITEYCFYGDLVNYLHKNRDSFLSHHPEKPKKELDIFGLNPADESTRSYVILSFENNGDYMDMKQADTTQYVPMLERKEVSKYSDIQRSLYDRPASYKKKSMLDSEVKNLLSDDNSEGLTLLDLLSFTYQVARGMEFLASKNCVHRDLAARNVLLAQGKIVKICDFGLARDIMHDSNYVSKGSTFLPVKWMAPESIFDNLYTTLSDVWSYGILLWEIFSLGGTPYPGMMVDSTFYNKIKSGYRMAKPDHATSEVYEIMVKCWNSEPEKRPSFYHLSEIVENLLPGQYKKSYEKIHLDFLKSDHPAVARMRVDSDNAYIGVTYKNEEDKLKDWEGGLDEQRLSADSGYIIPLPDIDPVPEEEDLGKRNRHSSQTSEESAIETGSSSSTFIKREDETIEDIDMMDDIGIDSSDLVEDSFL
Sequence of BRAF(V600E) (P15056 whole entry V600E): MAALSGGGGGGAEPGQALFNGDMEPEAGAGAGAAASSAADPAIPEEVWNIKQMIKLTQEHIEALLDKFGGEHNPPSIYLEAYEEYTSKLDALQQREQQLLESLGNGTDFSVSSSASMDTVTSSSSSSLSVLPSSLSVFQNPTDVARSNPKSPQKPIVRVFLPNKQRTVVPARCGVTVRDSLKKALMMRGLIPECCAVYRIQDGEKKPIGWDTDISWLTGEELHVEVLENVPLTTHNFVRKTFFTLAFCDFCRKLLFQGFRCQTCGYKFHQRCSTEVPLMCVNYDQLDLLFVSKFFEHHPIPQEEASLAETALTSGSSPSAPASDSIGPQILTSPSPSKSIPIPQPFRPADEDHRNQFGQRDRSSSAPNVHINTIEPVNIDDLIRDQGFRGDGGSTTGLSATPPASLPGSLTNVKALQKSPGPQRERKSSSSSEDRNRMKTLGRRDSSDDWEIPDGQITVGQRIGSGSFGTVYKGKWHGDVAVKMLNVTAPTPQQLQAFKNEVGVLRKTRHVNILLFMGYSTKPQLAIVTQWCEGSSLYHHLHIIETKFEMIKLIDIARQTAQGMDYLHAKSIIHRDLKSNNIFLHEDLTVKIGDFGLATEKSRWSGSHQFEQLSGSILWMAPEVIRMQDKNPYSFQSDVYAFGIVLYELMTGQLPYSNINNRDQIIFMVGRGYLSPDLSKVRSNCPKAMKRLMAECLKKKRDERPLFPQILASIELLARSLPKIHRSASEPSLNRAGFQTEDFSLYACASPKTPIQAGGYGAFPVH
Sequence of PIK3CA(E545K) (P42336 whole entry E545K): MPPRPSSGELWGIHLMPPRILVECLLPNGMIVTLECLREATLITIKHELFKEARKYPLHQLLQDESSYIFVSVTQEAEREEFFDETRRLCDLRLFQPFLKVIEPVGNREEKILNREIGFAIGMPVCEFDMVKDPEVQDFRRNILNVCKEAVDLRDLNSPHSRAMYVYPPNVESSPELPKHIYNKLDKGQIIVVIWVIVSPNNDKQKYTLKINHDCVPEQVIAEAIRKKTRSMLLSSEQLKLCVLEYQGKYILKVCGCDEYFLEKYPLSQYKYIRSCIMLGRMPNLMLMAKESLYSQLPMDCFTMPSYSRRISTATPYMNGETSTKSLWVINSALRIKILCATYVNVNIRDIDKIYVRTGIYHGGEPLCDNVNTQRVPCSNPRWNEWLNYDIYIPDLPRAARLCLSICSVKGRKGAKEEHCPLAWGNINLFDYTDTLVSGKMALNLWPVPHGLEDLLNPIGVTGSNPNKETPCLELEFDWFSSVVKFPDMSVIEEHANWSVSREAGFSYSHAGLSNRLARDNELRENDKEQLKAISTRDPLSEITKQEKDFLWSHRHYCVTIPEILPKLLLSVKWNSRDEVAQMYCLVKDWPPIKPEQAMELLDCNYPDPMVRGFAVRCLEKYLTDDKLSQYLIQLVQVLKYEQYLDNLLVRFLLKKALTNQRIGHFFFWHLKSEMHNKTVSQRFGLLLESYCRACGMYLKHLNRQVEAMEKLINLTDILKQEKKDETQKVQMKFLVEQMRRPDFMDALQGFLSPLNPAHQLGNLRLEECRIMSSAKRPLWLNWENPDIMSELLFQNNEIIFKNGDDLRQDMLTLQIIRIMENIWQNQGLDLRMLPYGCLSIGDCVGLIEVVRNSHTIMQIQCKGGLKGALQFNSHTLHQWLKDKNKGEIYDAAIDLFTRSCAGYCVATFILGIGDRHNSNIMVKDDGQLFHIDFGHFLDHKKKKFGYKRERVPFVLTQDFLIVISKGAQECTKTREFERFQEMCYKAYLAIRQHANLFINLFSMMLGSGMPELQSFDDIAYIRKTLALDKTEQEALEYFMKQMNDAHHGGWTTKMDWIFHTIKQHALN
T4 sequence (Q13882 whole entry): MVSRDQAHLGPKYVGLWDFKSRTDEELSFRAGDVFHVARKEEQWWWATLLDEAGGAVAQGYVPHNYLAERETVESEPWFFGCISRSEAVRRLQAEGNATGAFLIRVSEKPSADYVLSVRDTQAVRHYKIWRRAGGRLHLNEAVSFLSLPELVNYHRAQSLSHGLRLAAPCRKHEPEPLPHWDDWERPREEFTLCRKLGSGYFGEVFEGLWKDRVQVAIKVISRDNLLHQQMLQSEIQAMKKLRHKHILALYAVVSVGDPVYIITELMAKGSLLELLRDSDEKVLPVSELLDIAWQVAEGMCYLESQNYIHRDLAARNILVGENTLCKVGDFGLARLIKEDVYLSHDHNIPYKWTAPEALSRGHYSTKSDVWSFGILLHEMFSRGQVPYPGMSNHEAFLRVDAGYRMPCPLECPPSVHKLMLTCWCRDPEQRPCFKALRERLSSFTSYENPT
Sequence of EGFR(L747-S752del, P753S) (P00533 with tags, fused parts or gaps DEL747-752/P753S): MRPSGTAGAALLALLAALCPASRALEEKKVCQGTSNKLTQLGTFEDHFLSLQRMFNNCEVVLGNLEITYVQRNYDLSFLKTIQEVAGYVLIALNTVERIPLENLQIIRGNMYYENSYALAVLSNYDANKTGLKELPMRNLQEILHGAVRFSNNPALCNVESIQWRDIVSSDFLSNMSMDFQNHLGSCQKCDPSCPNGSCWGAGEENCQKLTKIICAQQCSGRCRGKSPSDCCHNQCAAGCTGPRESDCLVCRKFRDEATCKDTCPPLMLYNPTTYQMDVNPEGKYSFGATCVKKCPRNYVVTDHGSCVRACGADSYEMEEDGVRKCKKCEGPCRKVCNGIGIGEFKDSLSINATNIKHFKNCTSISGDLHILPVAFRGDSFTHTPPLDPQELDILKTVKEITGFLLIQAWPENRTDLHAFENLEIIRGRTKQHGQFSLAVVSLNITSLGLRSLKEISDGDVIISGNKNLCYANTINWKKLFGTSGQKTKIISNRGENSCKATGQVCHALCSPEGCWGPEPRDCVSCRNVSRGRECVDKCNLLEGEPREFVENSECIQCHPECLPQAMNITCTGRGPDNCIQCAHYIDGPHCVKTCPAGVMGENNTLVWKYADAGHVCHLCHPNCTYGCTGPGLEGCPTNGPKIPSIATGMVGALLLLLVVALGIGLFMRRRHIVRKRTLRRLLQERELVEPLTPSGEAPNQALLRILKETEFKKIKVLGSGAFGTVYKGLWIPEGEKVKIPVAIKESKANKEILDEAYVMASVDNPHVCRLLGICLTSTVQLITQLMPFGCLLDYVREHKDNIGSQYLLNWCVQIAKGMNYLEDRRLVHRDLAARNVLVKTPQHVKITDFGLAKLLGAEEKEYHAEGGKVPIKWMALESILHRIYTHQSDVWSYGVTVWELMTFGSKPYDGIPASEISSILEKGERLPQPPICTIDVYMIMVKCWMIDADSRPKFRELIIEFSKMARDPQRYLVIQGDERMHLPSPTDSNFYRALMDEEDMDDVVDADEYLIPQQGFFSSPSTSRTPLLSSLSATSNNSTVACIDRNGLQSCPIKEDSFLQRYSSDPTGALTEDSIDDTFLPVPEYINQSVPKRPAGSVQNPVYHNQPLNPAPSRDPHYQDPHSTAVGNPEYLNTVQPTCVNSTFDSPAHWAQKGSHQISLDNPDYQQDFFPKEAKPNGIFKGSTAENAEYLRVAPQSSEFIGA
Sequence of PHKG1 (Q16816 whole entry): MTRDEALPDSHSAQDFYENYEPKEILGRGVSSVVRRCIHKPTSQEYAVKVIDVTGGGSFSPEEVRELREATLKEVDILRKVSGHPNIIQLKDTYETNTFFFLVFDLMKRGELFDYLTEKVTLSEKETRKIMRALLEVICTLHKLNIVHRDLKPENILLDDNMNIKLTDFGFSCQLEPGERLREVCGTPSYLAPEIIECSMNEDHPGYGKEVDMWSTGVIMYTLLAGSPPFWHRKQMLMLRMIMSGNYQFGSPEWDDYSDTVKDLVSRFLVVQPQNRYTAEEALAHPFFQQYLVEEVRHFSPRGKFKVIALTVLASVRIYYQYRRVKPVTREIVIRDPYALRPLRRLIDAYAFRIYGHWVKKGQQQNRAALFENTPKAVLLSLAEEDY

CC#CC(=O)N1CCC[C@H]1c1nc(-c2ccc(C(=O)Nc3ccccn3)cc2)c2c(N)nccn12 [Acalabrutinib]
remaining binding at 0.3 µM (AURKC; [2]): 64%
remaining binding at 0.3 µM (p38-delta; [2]): 95%
remaining binding at 0.3 µM (GAK; [2]): 92%
remaining binding at 0.3 µM (BRK; [2]): 87%
remaining binding at 0.3 µM (BRAF(V600E); [2]): 70%
remaining binding at 0.3 µM (PHKG1; [2]): 92%
remaining binding at 0.3 µM (PIK3CA(E545K); [2]): 99%
remaining binding at 0.3 µM [1, 2]: 99%

C=CC(=O)N1CCC[C@@H](n2nc(-c3ccc(Oc4ccccc4)cc3)c3c(N)ncnc32)C1 [Ibrutinib]
remaining binding at 0.3 µM (AURKC; [3]): 54%
remaining binding at 0.3 µM (PDGFRA; [3]): 96%
remaining binding at 0.3 µM (BRK; [3]): 3.4%
remaining binding at 0.3 µM (BRAF(V600E); [3]): 98%
remaining binding at 0.3 µM (PIK3CA(E545K); [3]): 75%
remaining binding at 0.3 µM [1, 3]: 12%

CC#CC(=O)N1CC[C@@H](n2c(=O)n(-c3ccc(Oc4ccccc4)cc3)c3c(N)ncnc32)C1 [Tirabrutinib]
remaining binding at 0.3 µM (AURKC; [4]): 65%
remaining binding at 0.3 µM (p38-delta; [4]): 94%
remaining binding at 0.3 µM (PDGFRA; [4]): 95%
remaining binding at 0.3 µM (GAK; [4]): 95%
remaining binding at 0.3 µM (PHKG1; [4]): 83%
remaining binding at 0.3 µM (PIK3CA(E545K); [4]): 78%
remaining binding at 0.3 µM [1, 4]: 88%

C=CC(=O)N1CCC([C@@H]2CCNc3c(C(N)=O)c(-c4ccc(Oc5ccccc5)cc4)nn32)CC1 [Zanubrutinib]
remaining binding at 0.3 µM (AURKC; [5]): 97%
remaining binding at 0.3 µM (p38-delta; [5]): 100%
remaining binding at 0.3 µM (PDGFRA; [5]): 100%
remaining binding at 0.3 µM (GAK; [5]): 87%
remaining binding at 0.3 µM (BRK; [5]): 35%
remaining binding at 0.3 µM (BRAF(V600E); [5]): 88%
remaining binding at 0.3 µM (PHKG1; [5]): 67%
